# Data as given in patent US20240044922A1, “DEVICE AND METHODS FOR MEASURING PLATELET-FIBRIN CLOT CONTRACTION KINETICS” (University of Kentucky Research Foundation, priority 2022, published 2024).
# System: washed mouse platelets
# Test: Clot contraction assay, time-lapse imaging of washed mouse platelets with thrombin, fibrinogen and CaCl2
# Format: cell-based
# [1] = CaCl2 0.1 mM, thrombin 20 mU/mL, fibrinogen 250 μg/mL
# [2] = CaCl2 0.5 mM, thrombin 20 mU/mL, fibrinogen 250 μg/mL
# [3] = CaCl2 1 mM, thrombin 20 mU/mL, fibrinogen 250 μg/mL
smiles,measurement,setting,value
"O=CC[C@@H](O)[C@H](O)[C@H](O)CO [2DG, 2-deoxyglucose, reference compound]",Reduction of Phase 3 rate,10 mM 2DG,~5 fold
same,AUC,"2DG 5 mM, standard conditions",6.10 AU
same,Average Velocity,"2DG 5 mM, standard conditions",0.74 %/min
same,Clot Contraction Extent,"2DG 5 mM, standard conditions",72.66%
same,Lag time,"2DG 5 mM, standard conditions",23.33 min
same,PHASE 1 % Contraction,"2DG 5 mM, standard conditions",2.68%
same,PHASE 1 Rate 1,"2DG 5 mM, standard conditions",2.00 ×10^−3 %/min
same,PHASE 1 t1,"2DG 5 mM, standard conditions",11.67 min
same,PHASE 2 % Contraction,"2DG 5 mM, standard conditions",16.98%
same,PHASE 2 Rate 2,"2DG 5 mM, standard conditions",0.88 %/min
same,PHASE 2 t2,"2DG 5 mM, standard conditions",30.33 min
same,PHASE 3 % Contraction,"2DG 5 mM, standard conditions",53%
same,PHASE 3 Rate 3,"2DG 5 mM, standard conditions",1.83 ×10^−2 %/min
same,AUC,"2DG 10 mM, standard conditions",7.44 AU
same,Average Velocity,"2DG 10 mM, standard conditions",0.51 %/min
same,Clot Contraction Extent,"2DG 10 mM, standard conditions",50.55%
same,Lag time,"2DG 10 mM, standard conditions",37.00 min
same,PHASE 1 % Contraction,"2DG 10 mM, standard conditions",5.82%
same,PHASE 1 Rate 1,"2DG 10 mM, standard conditions",3.33 ×10^−3 %/min
same,PHASE 1 t1,"2DG 10 mM, standard conditions",23.33 min
same,PHASE 2 % Contraction,"2DG 10 mM, standard conditions",13.04%
same,PHASE 2 Rate 2,"2DG 10 mM, standard conditions",0.69 %/min
same,PHASE 2 t2,"2DG 10 mM, standard conditions",44.33 min
same,PHASE 3 % Contraction,"2DG 10 mM, standard conditions",31.68%
same,PHASE 3 Rate 3,"2DG 10 mM, standard conditions",0.87 ×10^−2 %/min
same,Detection of the three phases of contraction,2DG 25 mM,none of the three phases were detectible
same,AUC,"2DG 25 mM, standard conditions",8.57 AU
same,Average Velocity,"2DG 25 mM, standard conditions",0.24 %/min
same,Clot Contraction Extent,"2DG 25 mM, standard conditions",23.45%
same,Lag time,"2DG 25 mM, standard conditions",99.00 min
same,Effect on average velocity,varying 2DG concentrations,significant inhibitory effects
same,Effect on extent of contraction,varying 2DG concentrations,significant inhibitory effects
same,Effect on lag time,varying 2DG concentrations,prolonged lag time
[Ca+2].[Cl-].[Cl-] [CaCl2],AUC,[1],3.78 AU
same,Average Velocity,[1],0.98 %/min
same,Clot Contraction Extent,[1],97.02%
same,Lag time,[1],15.00 min
same,PHASE 1 % Contraction,[1],2.91%
same,PHASE 1 Rate 1,[1],5.00 ×10^−3 %/min
same,PHASE 1 t1,[1],7.00 min
same,PHASE 2 % Contraction,[1],29.63%
same,PHASE 2 Rate 2,[1],1.51 %/min
same,PHASE 2 t2,[1],27.33 min
same,PHASE 3 % Contraction,[1],64.48%
same,PHASE 3 Rate 3,[1],1.51 ×10^−2 %/min
same,AUC,[2],3.93 AU
same,Average Velocity,[2],0.96 %/min
same,Clot Contraction Extent,[2],95.36%
same,Lag time,[2],15.67 min
same,PHASE 1 % Contraction,[2],3.27%
same,PHASE 1 Rate 1,[2],4.67 ×10^−3 %/min
same,PHASE 1 t1,[2],8.33 min
same,PHASE 2 % Contraction,[2],27.00%
same,PHASE 2 Rate 2,[2],1.43 %/min
same,PHASE 2 t2,[2],28.00 min
same,PHASE 3 % Contraction,[2],65.48%
same,PHASE 3 Rate 3,[2],1.43 ×10^−2 %/min
same,AUC,[3],3.69 AU
same,Average Velocity,[3],0.99 %/min
same,Clot Contraction Extent,[3],98.08%
same,Lag time,[3],17.67 min
same,PHASE 1 % Contraction,[3],5.50%
same,PHASE 1 Rate 1,[3],5.00 ×10^−3 %/min
same,PHASE 1 t1,[3],12.33 min
same,PHASE 2 % Contraction,[3],31.17%
same,PHASE 2 Rate 2,[3],1.87 %/min
same,PHASE 2 t2,[3],30.00 min
same,PHASE 3 % Contraction,[3],61.41%
same,PHASE 3 Rate 3,[3],1.87 ×10^−2 %/min
same,Differences in clot contraction,calcium between 0.1 and 1 mM,limited differences
